Experimental findings from patent US9981920B2, “Inhibitors of histone deacetylase” (Rodin Therapeutics, Inc., priority 2014, dated 2018) are described below.

T1 sequence (Q92769 whole entry): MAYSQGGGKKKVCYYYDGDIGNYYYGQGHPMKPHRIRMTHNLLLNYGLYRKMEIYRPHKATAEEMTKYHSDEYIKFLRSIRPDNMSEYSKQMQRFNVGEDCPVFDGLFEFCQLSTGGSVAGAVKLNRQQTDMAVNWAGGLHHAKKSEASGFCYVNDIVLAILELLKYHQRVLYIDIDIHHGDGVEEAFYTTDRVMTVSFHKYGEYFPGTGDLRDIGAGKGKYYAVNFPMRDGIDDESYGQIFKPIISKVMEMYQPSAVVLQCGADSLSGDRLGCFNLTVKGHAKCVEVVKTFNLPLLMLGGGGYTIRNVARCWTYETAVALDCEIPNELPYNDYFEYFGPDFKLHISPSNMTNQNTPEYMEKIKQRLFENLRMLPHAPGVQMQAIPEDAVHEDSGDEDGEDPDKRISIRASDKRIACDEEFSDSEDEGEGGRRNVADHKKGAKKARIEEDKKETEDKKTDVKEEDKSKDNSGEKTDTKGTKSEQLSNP

The assay has as its target T1, HDAC2 (Homo sapiens, UniProt Q92769).
T1 construct: purchased Proteros
As to the kind of experiment: Reporter displacement assay (HDAC2 Kd). It counts as binding. The note with it: HDAC2 with C-terminal HIS-Tag 20 nM, 180 nM reporter probe, read after 4 h; Kd by Cheng Prusoff from probe displacement. As for the experimental part: HDAC2 containing a C-terminal HIS-Tag (Proteros) and fluorescently-labeled anti-HIS-antibody are diluted in one vial in assay buffer 50 mM Tris, pH 8.0, 1 mM DTT, 150 mM NaCl, and 0.01% Tween20. Components are pre-incubated for 30 min, then a small volume of reporter probe (Proteros) is added from a highly concentrated stock and incubation is continued for another 30 min. Final concentrations after adding the reporter probe amount to 20 nM HDAC2, 4 nM antibody, and 180 nM probe.
Ten μl/well of pre-formed complex are transferred into 384 well assay plates (Corning). Compounds to be profiled are serially diluted from 1×10^1-5.7×10^−5 mM in DMSO and 60 nl are added to assay plates by pintool transfer (CybiWell, Cybio). Fluorescence intensity signal is read after 4 h in a Pherastar FS (BMG Labtech) at 337/665 nm.
For Kd determination, percent probe displacement values are calculated for each compound concentration and plotted against the compound concentration. IC50-like values (corresponding to 50% probe displacement) are calculated using standard fitting algorithms. Since the reporter probe is used at a concentration reflecting its own Kd value, compound Kd values can be calculated according to the Cheng Prusoff equation.
In the table, “A” indicates a Kd value of less than 0.1 μM; “B” a Kd value of between 0.1 μM and 1.0 μM; “C” a Kd value of greater than 1.0 μM and less than or equal to 10.0 μM; and “D” a Kd value of greater than 10.0 μM.
Regarding `Cc1ccc(C(=O)CSc2nc(O)c3ccccc3n2)cc1` [Compound 100], the Kd (as a rule, the constant that tells how readily two partners part at equilibrium) lay within 1000 to 10000 nM. Consider `C=CCn1c(SCC(=O)c2ccc(C)cc2)nc(O)cc1=O` [Compound 101], for which the Kd is below 100 nM. `CCn1c(SCC(=O)c2ccccc2)nc(O)cc1=O` [Compound 102] displayed an equilibrium dissociation constant (Kd) below 100 nM.

Regarding `CCc1c(O)nc(SCC(=O)c2ccc(OC)cc2)[nH]c1=O` [Compound 103], the Kd is below 100 nM. Regarding `Cc1ccc(C(=O)CSc2nc(C)cc(=O)[nH]2)cc1` [Compound 104], the Kd lay within 100 to 1000 nM. For `CCc1ccc(C(=O)CSc2nc(C)cc(=O)[nH]2)cc1` [Compound 105], the Kd lay within 1000 to 10000 nM. As to `CC(=O)Nc1ccc(C(=O)CSc2nc(O)cc(=O)[nH]2)cc1` [Compound 106], the Kd is below 100 nM.

As to `Cc1ccc(C(=O)CSc2nc(O)cc(=O)[nH]2)cc1` [Compound 107], the Kd was below 100 nM.

`C=CCn1c(SCC(O)c2ccc(C)cc2)nc(O)cc1=O` (stereo not shown) [Compound 108] showed a Kd of 100 to 1000 nM. Regarding `Cc1ccc(C(=O)COc2nc(C)cc(=O)[nH]2)cc1` [Compound 109], the Kd was above 10000 nM. For `Cc1ccc(C(=O)CSc2nc(O)c(-c3ccccc3)c(=O)[nH]2)cc1` [Compound 110] the value was below 100 nM; for `O=C(CSc1nc(O)c(Cc2ccccc2)c(=O)[nH]1)c1ccccc1` [Compound 111], 100 to 1000 nM. Consider `Cc1ccc(C(=O)CSc2nc(O)cc(=O)n2C)cc1` [Compound 112], for which the Kd lay in the range of 100 to 1000 nM. For `Cc1ccc(C(=O)CSc2nc(O)cc(=O)n2C(C)C)cc1` [Compound 113] the value was 100 to 1000 nM; for `CC(=O)Nc1ccc(/C(CSc2nc(O)cc(=O)[nH]2)=N\O)cc1` [Compound 114], 1000 to 10000 nM; for `CCn1c(SCC(=O)c2ccc(C)cc2)nc(O)cc1=O` [Compound 115], 100 to 1000 nM. To `CC(=O)Nc1ccc(C(=O)CSc2nc(O)cc(=O)n2C)cc1` [Compound 116] belongs below 100 nM; to `CCn1c(SCC(=O)c2ccc(NC(C)=O)cc2)nc(O)cc1=O` [Compound 117], below 100 nM; to `CC(=O)Nc1ccc(C(=O)CSc2nc(O)cc(=O)n2C(C)C)cc1` [Compound 118], below 100 nM. `CC(=O)Nc1ccc(C(=O)CSc2nc(O)c(-c3ccccc3)c(=O)[nH]2)cc1` [Compound 119] registered a Kd below 100 nM. For `COc1ccc(C(=O)CSc2nc(O)cc(=O)[nH]2)cc1` [Compound 120] the value was 100 to 1000 nM. To `COc1ccc(C(=O)CSc2nc(O)c(-c3ccccc3)c(=O)[nH]2)cc1` [Compound 121] belongs 100 to 1000 nM; to `Nc1ccc(C(=O)CSc2nc(O)c(-c3ccccc3)c(=O)[nH]2)cc1` [Compound 122], 100 to 1000 nM. `CC(=O)Nc1ccc(C(=O)CSc2nc(O)c(C3CCCC3)c(=O)[nH]2)cc1` [Compound 123] displayed a Kd below 100 nM. Molecule `CC(=O)Nc1ccc(C(=O)CSc2nc3ccccc3c(=O)[nH]2)cc1` [Compound 124] had a Kd of 100 to 1000 nM.

Regarding `O=C(CSc1nc(O)c(-c2ccccc2)c(=O)[nH]1)c1ccc(NC(=O)c2ccccc2)cc1` [Compound 125], the Kd was below 100 nM. Consider `CC(C)(C)OC(=O)Nc1ccc(C(=O)CSc2nc(O)c(-c3ccccc3)c(=O)[nH]2)cc1` [Compound 126], for which the Kd is 100 to 1000 nM. In turn, `Nc1ccc(C(=O)CSc2nc(O)cc(=O)[nH]2)cc1` [Compound 127] showed a Kd of 100 to 1000 nM.

For `O=C(CSc1nc(O)cc(=O)[nH]1)c1ccc(NC(=O)C(F)(F)F)cc1` [Compound 128], the dissociation constant (Kd) is below 100 nM. For `CC(C)C(=O)Nc1ccc(C(=O)CSc2nc(O)cc(=O)[nH]2)cc1` [Compound 129] the value was below 100 nM; for `O=C(CSc1nc(O)cc(=O)[nH]1)c1ccc(NC(=O)c2ccccc2)cc1` [Compound 130], 100 to 1000 nM; for `CC(=O)Nc1ccc(C(=O)CSc2nc(O)cc(=O)n2C2CCCC2)cc1` [Compound 131], below 100 nM. To `CC(=O)Nc1ccc(C(=O)CSc2nc(O)cc(=O)n2-c2ccccc2)cc1` [Compound 132] belongs 100 to 1000 nM; to `CC(=O)N(C)c1ccc(C(=O)CSc2nc(O)cc(=O)[nH]2)cc1` [Compound 133], below 100 nM; to `CN(C)c1ccc(C(=O)CSc2nc(O)cc(=O)[nH]2)cc1` [Compound 134], 100 to 1000 nM. For `CC(C)(C)OC(=O)Nc1ccc(C(=O)CSc2nc(O)cc(=O)[nH]2)cc1` [Compound 135] the value was 100 to 1000 nM; for `CC(=O)Nc1ccc(C(=O)CSc2nc(O)cc(=O)n2C2CC2)cc1` [Compound 136], 100 to 1000 nM. `O=C(CSc1nc(O)cc(=O)[nH]1)c1ccc(N2CCCC2=O)cc1` [Compound 137] registered a Kd below 100 nM.

`O=C(CSc1nc(O)cc(=O)[nH]1)c1ccc2[nH]cnc2c1` [Compound 138] displayed a Kd of 100 to 1000 nM. To `Cc1cccc(C(=O)CSc2nc(O)cc(=O)n2C)c1` [Compound 139] belongs 100 to 1000 nM; to `Cn1c(SCC(=O)c2ccccc2)nc(O)c(-c2ccccc2)c1=O` [Compound 140], 100 to 1000 nM. In turn, `Cn1c(SCC(=O)c2ccc(F)cc2)nc(O)cc1=O` [Compound 141] registered a Kd of 100 to 1000 nM. For `Cn1c(SCC(=O)c2cccc(F)c2)nc(O)cc1=O` [Compound 142] the value was below 100 nM. For `Cn1c(SCC(=O)c2ccc(Cl)cc2)nc(O)cc1=O` [Compound 143], the Kd was in the range of 100 to 1000 nM.

As for `Cn1c(SCC(=O)c2cccc(Cl)c2)nc(O)cc1=O` [Compound 144], the Kd was 100 to 1000 nM. As for `Cc1ccc(C(=O)CSc2nc(=O)c3ccccc3n2C)cc1` [Compound 145], the Kd lay in the range of 100 to 1000 nM.
